According to a melting point compilation (Tetko et al.; mined from patent text by program, amines drawn as free bases though some values may be those of a salt):

| melting point [°C] | Compound |
| --- | --- |
| 62 to 63 | O=Cc1cccc(COc2cccc(-c3ccsc3)c2)c1 |
| 179 to 180 | C#CCc1c(C)nc2c(OCc3c(C)cccc3NC(=O)OC)cccn12 |
| 116 to 117 | CC(O)c1ccc(-c2ccc(C(F)(F)F)cc2)cc1 (stereo not given) |
| 152 to 155 | C[C@H](NC(=O)CS)C(=O)N1CCC[C@H]1C(=O)O |
| 192 to 194 | Nc1nc2ccccc2c2c1nc(CCCOc1ccccc1)n2CCCNC(=O)c1ccccc1 |
| 94 to 95 | CC#CN1CCN(C(=O)c2ccccc2)CC1 |
| 126 to 127 | [N-]=[N+]=Nc1ccc(S(=O)(=O)NCCCCCC(=O)O)cc1 |
| 50 to 55 | CCOc1ccc(C(C)=O)cc1C(=O)OC |
| 121 to 125 | CC(SN1C(=O)CCC1=O)c1ccccc1 (stereo not given) |
| 66 to 68 | c1cc(N2CCCCC2)ccc1OC12CCC(CC1)CC2 |
| 169 | CCOC(=O)C1=C(C)NC(N)=C(C(=O)OCC)C1c1cccc([N+](=O)[O-])c1 (stereo not given) |
| 65 to 66 | CC1(COCc2ccccc2)COC(c2ccc([N+](=O)[O-])cc2)=N1 (stereo not given) |
| 180 | COc1ccc(C2CSc3ccccc3N(CC(=O)O)C2=O)cc1 (stereo not given) |
| 139 | CNC(=S)C1(c2cccc(C)n2)CCCCS1 (stereo not given) |
| 192 to 196 | CN(C(=S)n1cc(F)c(N)nc1=O)c1ccccc1 |
| 213 to 217 | O=C(Nc1ccc(N2CCN(C(=O)Nc3ccc(OCCO)cc3Cl)CC2)cc1)Nc1ccccc1F |
| 173 to 174 | CCN(CC)CCNC(=O)c1cc(Cl)c(NC(=O)c2ccc3ccccc3c2)cc1OC |
| 77 to 78 | COCNC(=O)CNC(=O)OCc1ccccc1 |
| 118 to 119 | CC(=O)Oc1ccc(CCC(=O)Nc2cc(C)c(O)c(C)c2)cc1OC(C)=O |
| 108 to 110 | CC1CCc2[nH]c3ccc(Br)cc3c2C1 (stereo not given) |

| melting point [°C] | Compound |
| --- | --- |
| 126 to 127 | O=C(c1ccc(I)cc1)N1CCCCC1 |
| 142 to 144 | COc1cc2nc(SCc3nccc(N(C)C)c3F)[nH]c2cc1OC |
| 114 to 115 | CCOC(=S)c1cccc2nnsc12 |
| 105 | CC1(C(O)(Cc2ccccc2Cl)Cn2cncn2)CCCCC1 (stereo not given) |
| 231 to 234 | CN(C)c1cc2c(cc1Cl)NC(=O)CC(c1cccc(-c3csc(Nc4ccncc4)n3)c1)=N2 |
| 252 to 254 | O=C1CCn2c(-c3cccs3)nc3c(Cl)ccc1c32 |
| 183 to 184 | COC(c1ccccc1)c1nc2c(N)nc3ccccc3c2n1CC(C)C (stereo not given) |
| 52 to 54 | CCCC(=O)OC(C)OC(=O)Nc1ccc(Cl)cc1 (stereo not given) |
| 66 to 68 | Cc1cc(C)c2cccc(Cl)c2n1 |
| 239 to 241 | CC(C)[C@H](NCc1ccc(Br)cc1)C(=O)O |
| 149 to 152 | CS(=O)(=O)c1ccc2cc[nH]c2c1 |
| 129 to 130 | O=C(NCc1cc(C(F)(F)F)cc(C(F)(F)F)c1)c1c(-c2ccccc2)c2cccnc2c(=O)n1CCCO |
| 110 | COc1ccc(Nc2ccc(CO)cc2)cc1 |
| 255 to 259 | CN1N=C(c2ccc3c(c2)CCC(=O)N3)C2CC2C1=O (stereo not given) |
| 228 | Cc1ccc(S(=O)c2cccc(-c3nc(=O)c4ccccc4s3)n2)cc1 (stereo not given) |
| 260 to 264 | CCCc1cc2c(=O)n3cc(C(N)=O)ccc3nc2s1 |
| 157 to 158 | CNc1nc(Cl)cc(Cl)n1 |
| 88.5 to 89.5 | CN(C)C(=O)COc1cccc(C(F)(F)F)c1 |
| 61 to 63 | CC(C)n1nc(-c2ccc(O)cc2O)c2cccc(C(F)(F)F)c21 |
| 139 to 140 | CCCn1c(=O)c2nc(C(CC)c3ccc(OCC(=O)NCCN)cc3)[nH]c2n(CCC)c1=O (stereo not given) |

| melting point [°C] | Compound |
| --- | --- |
| 168 | CC(C)N(c1ccc(C#N)cc1[N+](=O)[O-])S(=O)(=O)c1ccc(Cl)cc1 |
| 94 to 95 | CC(C)CC1(C(C)C(=O)O)CCN(CCc2ccccc2)C1=O (stereo not given) |
| 161 to 163 | O=C1Cc2c(OCCNCc3ccccc3)ccc(Cl)c2N1 |
| 189 to 191 | CCc1cccc(NCCCc2cn(C(c3ccccc3)(c3ccccc3)c3ccccc3)cn2)c1 |
| 50 | O=C(O)CCCCCNC(=O)C1Cc2ccccc2N1S(=O)(=O)c1ccc(-c2cccc(C(F)(F)F)c2)cc1 (stereo not given) |
| 161 to 170 | CN(C)CC(C)(C)CNc1ncc2cc(-c3c(Cl)cccc3Cl)c(NC(=O)NC(C)(C)C)nc2n1 |
| 189 to 192 | CN1Cc2cccnc2N(c2cccc(F)c2)C1=O |
| 85 to 90 | CCN1Cc2ccccc2N(CC)C(Nc2nc(Nc3cc4c(cc3OC)CCN(CC(=O)N(C)C)CC4)ncc2Cl)C1 (stereo not given) |
| 173 to 175 | Cc1ccccc1NC(=O)Nc1ccc(CC(=O)NC(CC(C)C)C2=NOC(CCC(=O)O)(CCC(=O)O)C2)cc1 (stereo not given) |
| 181 to 183 | Nc1ncnc2c1ncn2[C@H]1C=C[C@@H](O)CC1 (racemic) |
| 120 to 122 | COc1cccc(C=O)c1OS(=O)(=O)c1ccccc1 |
| 170 | N#Cc1c(SSc2ccc([N+](=O)[O-])cc2C(Cl)(Cl)Cl)ccc2ccccc12 |
| 210 to 212 | CC(C)Oc1ccc2nc(COc3ccc(CC4SC(=O)NC4=O)cc3)n(C)c2n1 (stereo not given) |
| > 230 | CN1CSC(=Cc2ccc(O)c(C(C)(C)C)c2)C1=O |
| 150 to 155 | Nc1cnc(NCCSCc2csc(CN3CCCCC3)c2)[nH]c1=O |
| 198 | CN(C(=S)N[C@@H](Cc1ccc(NC(=O)c2c(Cl)cncc2Cl)cc1)C(=O)O)c1ccccc1Cc1ccccc1 |
| 68 | COC(=O)CCn1c(C(=O)NCC(=O)N(CC2CCCCC2)c2c(OC)cc(C)cc2OC)cc2ccccc21 |
| 89.5 to 91 | COc1ccc(CC(C(=O)n2ccnc2)C(C)(C)C)cc1 (stereo not given) |

More lines, now with the values behind:

| Compound | melting point [°C] |
| --- | --- |
| Cc1cnc(NS(C)(=O)=O)cc1C(c1cc(F)ccc1F)S(=O)(=O)c1ccc(Cl)cc1 (stereo not given) | 214 to 217 |
| COc1ccc(-n2nnc(-c3ccc(Cl)cc3C(F)(F)F)c2N)cc1 | 159 to 160 |
| CCCc1nc(Nc2cccc(C(C)C)c2)nc(NC2CCN(S(C)(=O)=O)CC2)n1 | 80.4 to 81.8 |
| O=C(NCCBr)C1=C(C(=O)Nc2cc(OC3CCCC3)c(Cl)cc2F)CCCC1 | 140 to 142 |
| CC1(C)CC(=O)C(C(=O)c2cccc3nnsc23)C(=O)C1 | 168 to 170 |
| O=C(NC=C(c1ccccc1)c1ccccc1)c1sc2ccc(F)cc2c1O | 186 to 189 |
| CNCCC(=O)N1c2ccccc2N2CCc3cccc(c32)C1C (stereo not given) | 124 to 126 |
| CCC(=O)Nc1cccc(-c2ccc3nnc(C)n3n2)c1 | 265 to 268 |
| COc1cc(-n2nc(C(F)(F)F)cc2-c2ccc(S(C)(=O)=O)cc2)ccc1Br | 156 to 157 |
| O=C(OCCO)c1cc(-c2ccc(Cl)cc2)c[nH]1 | 128 to 130 |
| N#Cc1c(N)n[nH]c1N1CCN(Cc2ccccc2)CC1 | 157 to 158 |
| O=C(O)c1nnn(Cc2ccccc2)n1 | 127 to 130 |
| C[C@@]12CCCN1[C@@H](C(Cl)(Cl)Cl)OC2=O | 55 to 57 |
| COCCCn1c(CO)cc2c3c(c(-c4ccccc4Cl)cc21)C(=O)NC3=O | 187 to 189 |
| CCc1cn(C2CC(I)C(COC(c3ccccc3)(c3ccccc3)c3ccccc3)O2)c(=O)[nH]c1=O (stereo not given) | 93 to 98 |
| CNC(=CC#N)c1ccc2ccccc2c1 | 138 |
| COc1ccc2c(c1)CCN(CCc1ccc(NC=O)cc1)C2C (stereo not given) | 93 to 96 |
| Cc1cc(F)ccc1-c1ccc(S(=O)(=O)N2c3ccccc3CC2C(=O)NCc2ccccc2NCCC(=O)O)cc1 (stereo not given) | 118 to 126 |
| COc1ccc(-n2nc(CCC(=O)N(C)O)cc2-c2ccc(F)cc2)cc1 | 151 to 154 |
| CCOCc1nc2c(N)nc(C)c(C)c2n1CCC1CCN(Cc2ccccc2)CC1 | 165 to 167 |
| Cc1ccc2cccc(OCc3c(C)ccc(N(C)C(=O)CN4C(=O)c5ccccc5C4=O)c3C)c2n1 | 102 to 110 |

| Compound | melting point [°C] |
| --- | --- |
| O=C(O)c1ccc(Br)cc1-c1cc(Cl)cc(Cl)c1 | 182 to 186 |
| Nc1ccc(F)cc1C(=O)c1ccccc1 | 112 to 113 |
| Cc1cc(N(C)Cc2oc(-c3ccc(C(F)(F)F)cc3)nc2C)cc(C)c1OCC(=O)O | 122 to 123 |
| CCOc1cc(C(=O)N2CCC(CCN3CCC(C(N)=O)(c4ccccc4)CC3)(c3ccc(OC)c(OC)c3)C2)cc(OCC)c1OCC (stereo not given) | 139 to 141 |
| Cc1ccccc1C1CCN(C(=O)CCC(=O)c2ccc3c(c2)CCN(C(=O)C(F)(F)F)CC3)CC1 | 130 to 131 |
| COC(=O)c1ccc(S(=O)(=O)Cc2c(O)ccc3c2CCCC3=O)cc1 | 132 to 134 |
| CC(C)c1nc(-c2cccs2)cc(-c2ccc(F)cc2)c1CO | 151 to 153 |
| COc1ccc2c(c1)CCN=C2C | 206 to 207 |
| CNS(=O)(=O)c1cccc(NC(=O)c2cnn3c(C(F)(F)F)cc(-c4ccc(C(F)(F)F)cc4)nc23)c1 | 232 |
| CCn1nc2c(N)nc3ccccc3c2c1CO | 255 to 256 |
| O=C(Nc1ccc2[nH]ccc2c1)c1ccc(F)cc1 | 205 to 207 |
| Cc1cc2c(C(=O)C3=C(O)C4CCC(C4)C3=O)ccc(S(C)=O)c2o1 (stereo not given) | 243 to 244 |
| C=C1C(c2ccccc2)=C(c2ccc(S(C)(=O)=O)cc2)C1(Cl)Cl | 124 to 126 |
| N=C(Nc1ccc(F)cc1)Nc1ncccc1OCc1c(F)cccc1Cl | 152 to 154 |
| CCOc1cc(NC(=O)CCC(=O)c2ccc(OCC)c(OCC)c2)nc(-c2ccccc2)c1 | 172 to 173 |
| Cc1c(C(=O)c2sc(Nc3ccc(S(N)(=O)=O)cc3)nc2N)ncn1C | 293 to 294 |
| COC(=O)C1=C(OS(=O)(=O)c2ccc([N+](=O)[O-])cc2)C(=O)O[C@@H]1C | 123 to 124 |
| CN(CCCNC(=O)c1ccc(OC(F)(F)F)cc1)CCCNC(=O)c1ccc(OC(F)(F)F)cc1 | 110 to 111 |
| COc1ccccc1C=C1CS(=O)(=O)CC(=Cc2ccccc2OC)C1=O | 198 to 200 |
| CCOC(=O)N1CCC2(CC1)N=C(N)c1c(F)ccc(Cl)c1N2 | 182 to 184 |
| CCCC1=C(C(=O)OCC)C(c2cc(Cl)ccc2Cl)c2c[nH]nc2N1 (stereo not given) | 162 |
